# Measurements reported in patent publication US4452807A, “(R,S)-1-(3-Hydroxy-4-methoxybenzoyl)-3-hydroxy-2-pyrrolidinone intermediates therefor and use for treating cerebral insufficiency” (Hoffmann-La Roche Inc., priority 1981, dated 1984).
# Assay: Acute toxicity, single oral administration to mice
# Conditions: mouse, in vivo, p.o.
# From the text: Moreover, the Table contains data concerning the acute toxicity, that is, LD50 in mg/kg in the case of single oral administration to mice.
row,Structure (SMILES),LD50
1,"COc1ccc(C(=O)N2CCC(O)C2=O)cc1O (racemic) [R,S, (R,S)-1-(3-hydroxy-4-methoxybenzoyl)-3-hydroxy-2-pyrrolidinone]",> 5000 mg/kg
2,"COc1ccc(C(=O)N2CC[C@@H](O)C2=O)cc1O [R, (R)-1-(3-hydroxy-4-methoxybenzoyl)-3-hydroxy-2-pyrrolidinone]",> 5000 mg/kg
3,"COc1ccc(C(=O)N2CC[C@H](O)C2=O)cc1O [S, (S)-1-(3-hydroxy-4-methoxybenzoyl)-3-hydroxy-2-pyrrolidinone]",> 4000 mg/kg
